In patent publication US20230234943A1, “TREX1 INHIBITORS AND USES THEREOF” (Tempest Therapeutics, Inc., priority 2020, published 2023):

Target: T1, Human TREX1 enzyme (amino acids 1-242) (Homo sapiens, UniProt Q9NSU2)
T1 construct: Human TREX1 enzyme (amino acids 1-242)
T1 sequence (Q9NSU2 1-242): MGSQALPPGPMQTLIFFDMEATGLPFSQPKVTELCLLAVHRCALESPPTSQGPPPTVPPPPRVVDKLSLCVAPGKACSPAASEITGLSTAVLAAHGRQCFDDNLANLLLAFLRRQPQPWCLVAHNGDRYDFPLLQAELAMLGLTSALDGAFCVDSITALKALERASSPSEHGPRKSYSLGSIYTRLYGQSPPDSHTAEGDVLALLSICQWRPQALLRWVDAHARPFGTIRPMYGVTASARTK
Test: Human TREX1 enzymatic assay with dsDNA native oligonucleotide (Picogreen fluorescence)
Type: biochemical
Details: 2 mM dithiothreitol in assay buffer; 50 nM dsDNA oligonucleotide; 30 min preincubation at 25° C.; read-out: TREX1/Human + DTT IC50 AVG
Procedure: Example A. Human TREX1 Enzymatic Assay with dsDNA Native Oligonucleotide
Human TREX1 enzyme (amino acids 1-242) was diluted in assay buffer (20 mM Tris pH 7.7, 5 mM MgCl2, 0.01% human serum albumin, 0.01% Brij™-35, 2 mM dithiothreitol) to a final concentration of 0.8 nM to 0.16 nM and added to a 96-well low-binding polypropylene plate. Test compounds were diluted in DMSO to 50× concentration (final DMSO concentration in reaction mixture of 2%) and added to the wells with a concentration ranging from 300 μM to 13 nM or 30 μM to 1.5 nM. The reaction mixtures were incubated for 30 minutes at 25° C. and a solution of annealed dsDNA oligonucleotide (5′-[…]-3′ and Comp: 5′-[…]-3′) was added to a final concentration of 50 nM. The reaction mixtures were incubated at 25° C. for 5-15 minutes and subsequently quenched by transferring part of the assay reaction to a solution of 100 mM ethylenediaminetetraacetic acid and 1:100 Picogreen™ (final concentration of […]) in a black plate with an opaque bottom. The fluorescence ([…]) was measured using a Molecular Devices SpectraMax plate reader. Wells containing oligonucleotide but no TREX1 enzyme were used as negative controls. Wells containing oligonucleotide, TREX1 enzyme, and DMSO were used as positive controls.

Row | IC50 [µM] | Structure (SMILES)
1 | ≤ 0.1 | COc1cc(-c2nc3ccc(C(=O)Nc4ccccc4)cc3n2C2(C)COC2)c(F)c(O)c1O [Example 246, 2-(2-fluoro-3,4-dihydroxy-5-methoxyphenyl)-1-(3-methyloxetan-3-yl)-N-phenyl-1H-benzo[d]imidazole-6-carboxamide]
2 | ≤ 0.1 | COc1cc(-c2nc3ccc(C(=O)NC4CCC(F)(F)CC4)cc3n2C2(C)COC2)c(F)c(O)c1O [Example 256, N-(4,4-difluorocyclohexyl)-2-(2-fluoro-3,4-dihydroxy-5-methoxyphenyl)-1-(3-methyloxetan-3-yl)-1H-benzo[d]imidazole-6-carboxamide]
3 | ≤ 0.1 | COc1cc(-c2nc3ccc(C(=O)NC4CS(=O)(=O)C4)cc3n2C2(C)COC2)c(F)c(O)c1O [Example 307, N-(1,1-dioxidothietan-3-yl)-2-(2-fluoro-3,4-dihydroxy-5-methoxyphenyl)-1-(3-methyloxetan-3-yl)-1H-benzo[d]imidazole-6-carboxamide]
4 | 0.1 to 1 | COc1cc(-c2nc3ccccc3n2C23CC(C2)C3)c(C)c(O)c1O [Example 291, 4-(1-(bicyclo[1.1.1]pentan-1-yl)-1H-benzo[d]imidazol-2-yl)-6-methoxy-3-methylbenzene-1,2-diol]
5 | 10 to 100 | COc1cc(-c2nc3ccncc3[nH]2)cc(O)c1O [Example 12, 5-(3H-imidazo[4,5-c]pyridin-2-yl)-3-methoxybenzene-1,2-diol]
6 | ≤ 0.1 | COc1cc(-c2nc3ccc(-c4ncco4)cc3n2C2(C)COC2)c(F)c(O)c1O [Example 296, 3-fluoro-6-methoxy-4-(1-(3-methyloxetan-3-yl)-6-(oxazol-2-yl)-1H-benzo[d]imidazol-2-yl)benzene-1,2-diol]
7 | > 100 | COc1cc(-c2nc3cc(N4CCN(C(C)=O)CC4)ccc3[nH]2)cc(O)c1O [Example 26, 1-(4-(2-(3,4-dihydroxy-5-methoxyphenyl)-1H-benzo[d]imidazol-5-yl)piperazin-1-yl)ethanone]
8 | 10 to 100 | O=C(O)c1c(O)cc(-c2nc3ccncc3[nH]2)cc1F [Example 90, 2-fluoro-6-hydroxy-4-(3H-imidazo[4,5-c]pyridin-2-yl)benzoic acid]
9 | 10 to 100 | COc1cc(-c2nc3ccc(N4CCC4)cc3n2C2CCOC2)cc(C(=O)O)c1O (stereo not drawn) [Example 166, 5-(6-(azetidin-1-yl)-1-(tetrahydrofuran-3-yl)-1H-benzo[d]imidazol-2-yl)-2-hydroxy-3-methoxybenzoic acid]
10 | 10 to 100 | COc1cc(-c2nc3ccccc3n2C2CNC2)c(C)c(O)c1O [Example 165, 4-(1-(azetidin-3-yl)-1H-benzo[d]imidazol-2-yl)-6-methoxy-3-methylbenzene-1,2-diol]
11 | ≤ 0.1 | COc1cc(-c2nc3cc(NCc4ccccc4)ccc3n2C2(C)COC2)c(F)c(O)c1O [Example 222, 4-(5-(benzylamino)-1-(3-methyloxetan-3-yl)-1H-benzo[d]imidazol-2-yl)-3-fluoro-6-methoxybenzene-1,2-diol]
12 | 10 to 100 | COc1cc(-c2nc3ccc(S(=O)(=O)N(C)C)cc3n2C2(C)COC2)c(F)c(O)c1O [Example 228, 2-(2-fluoro-3,4-dihydroxy-5-methoxyphenyl)-N,N-dimethyl-1-(3-methyloxetan-3-yl)-1H-benzo[d]imidazole-6-sulfonamide]
13 | ≤ 0.1 | COc1cc(-c2nc3cc(NC(C)=O)ncc3n2C2(C)COC2)c(F)c(O)c1O [Example 237, N-(2-(2-fluoro-3,4-dihydroxy-5-methoxyphenyl)-3-(3-methyloxetan-3-yl)-3H-imidazo[4,5-c]pyridin-6-yl)acetamide]
14 | > 100 | COc1cc(-c2nc3cnccc3n2C)cc(O)c1O [Example 45, 3-methoxy-5-(1-methyl-1H-imidazo[4,5-c]pyridin-2-yl)benzene-1,2-diol]
15 | 10 to 100 | O=C(O)c1cc(-c2nc3cc(N4CCOCC4)ccc3[nH]2)ccc1O [Example 140, 2-hydroxy-5-(5-morpholino-1H-benzo[d]imidazol-2-yl)benzoic acid]
16 | > 100 | COc1cc(-c2nc3ncccc3n2C2COC2)cc(O)c1O [Example 36, 3-methoxy-5-(1-(oxetan-3-yl)-1H-imidazo[4,5-b]pyridin-2-yl)benzene-1,2-diol]
17 | > 100 | COc1cc(-c2nc3cc(N4CCN(C)CC4)ccc3[nH]2)cc(O)c1O [Example 24, 3-methoxy-5-(5-(4-methylpiperazin-1-yl)-1H-benzo[d]imidazol-2-yl)benzene-1,2-diol]

Row | IC50 [µM] | Structure (SMILES)
18 | 0.1 to 1 | COc1cc(-c2nc3ccccc3n2C2(C)CC2)c(F)c(O)c1O [Example 329, 3-fluoro-6-methoxy-4-(1-(1-methylcyclopropyl)-1H-benzo[d]imidazol-2-yl)benzene-1,2-diol]
19 | > 100 | COc1cc(-c2nc3cc(N4CCN(C(=O)c5ccccc5-c5ccccc5)CC4)ccc3[nH]2)cc(O)c1O [Example 105, [1,1′-biphenyl]-2-yl(4-(2-(3,4-dihydroxy-5-methoxyphenyl)-1H-benzo[d]imidazol-5-yl)piperazin-1-yl)methanone]
20 | 10 to 100 | COc1c(C)c(-c2nc3ccccc3n2C2(C)COC2)cc(O)c1O [Example 201, 3-methoxy-4-methyl-5-[1-(3-methyloxetan-3-yl)-1H-1,3-benzodiazol-2-yl]benzene-1,2-diol]
21 | > 100 | COc1cc(-c2nc3c(-c4ccccc4)ncnc3[nH]2)cc(O)c1O [Example 37, 3-methoxy-5-(6-phenyl-9H-purin-8-yl)benzene-1,2-diol]
22 | 10 to 100 | COc1cc(-c2nc3cc(C4CCN(C(C)=O)CC4)ccc3[nH]2)cc(O)c1O [Example 109, 1-(4-(2-(3,4-dihydroxy-5-methoxyphenyl)-1H-benzo[d]imidazol-5-yl)piperidin-1-yl)ethanone]
23 | > 100 | COc1cc(-c2nc3ccncc3n2C)cc(O)c1O [Example 44, 3-methoxy-5-(3-methyl-3H-imidazo[4,5-c]pyridin-2-yl)benzene-1,2-diol]
24 | 1 to 10 | COc1cc(-c2nc3cc(N4CCN(C)C(=O)C4)ccc3[nH]2)cc(O)c1O [Example 108, 4-(2-(3,4-dihydroxy-5-methoxyphenyl)-1H-benzo[d]imidazol-5-yl)-1-methylpiperazin-2-one]
25 | 10 to 100 | COc1cc(-c2nc3cc(N4CC5(CN(CC(F)(F)F)C5)C4)ccc3[nH]2)cc(O)c1O [Example 122, 3-methoxy-5-(5-(6-(2,2,2-trifluoroethyl)-2,6-diazaspiro[3.3]heptan-2-yl)-1H-benzo[d]imidazol-2-yl)benzene-1,2-diol]
26 | 10 to 100 | COc1cc(-c2nc3cc(N4CC5(CN(C(C)=O)C5)C4)ccc3[nH]2)cc(O)c1O [Example 132, 1-(6-(2-(3,4-dihydroxy-5-methoxyphenyl)-1H-benzo[d]imidazol-5-yl)-2,6-diazaspiro[3.3]heptan-2-yl)ethan-1-one]
27 | ≤ 0.1 | COc1cc(-c2nc3cc(NC(=O)c4ccncc4)ccc3n2C2(C)COC2)c(F)c(O)c1O [Example 306, N-(2-(2-fluoro-3,4-dihydroxy-5-methoxyphenyl)-1-(3-methyloxetan-3-yl)-1H-benzo[d]imidazol-5-yl)isonicotinamide]
28 | ≤ 0.1 | COc1cc(-c2nc3cc(NC(=O)c4ccccn4)ccc3n2C2(C)COC2)c(F)c(O)c1O [Example 203, N-[2-(2-fluoro-3,4-dihydroxy-5-methoxyphenyl)-1-(3-methyloxetan-3-yl)-1H-1,3-benzodiazol-5-yl]pyridine-2-carboxamide]
29 | 1 to 10 | CCOc1cc(-c2nc3ccccc3n2C2CCC2)cc(O)c1O [Example 234, 5-(1-cyclobutyl-1H-1,3-benzodiazol-2-yl)-3-ethoxybenzene-1,2-diol]
30 | 1 to 10 | COc1ccc(C(=O)N2CCN(c3ccc4[nH]c(-c5cc(O)c(O)c(OC)c5)nc4c3)CC2)cc1 [Example 85, (4-(2-(3,4-dihydroxy-5-methoxyphenyl)-1H-benzo[d]imidazol-5-yl)piperazin-1-yl)(4-methoxyphenyl)methanone]
31 | 1 to 10 | COc1cc(-c2nc3ccccc3n2C2CCC2)c(F)c(O)c1O [Example 327, 4-(1-cyclobutyl-1H-benzo[d]imidazol-2-yl)-3-fluoro-6-methoxybenzene-1,2-diol]
32 | 10 to 100 | O=C(O)c1cc(F)c(-c2nc3ccncc3[nH]2)cc1O [Example 120, 5-fluoro-2-hydroxy-4-(3H-imidazo[4,5-c]pyridin-2-yl)benzoic acid]
33 | 1 to 10 | COc1cccc(C(=O)N2CCN(c3ccc4[nH]c(-c5cc(O)c(O)c(OC)c5)nc4c3)CC2)c1 [Example 124, (4-(2-(3,4-dihydroxy-5-methoxyphenyl)-1H-benzo[d]imidazol-5-yl)piperazin-1-yl)(3-methoxyphenyl)methanone]
